Laboratory results: patent US6914045B2, “Glycopeptide antibiotics” (Wyeth Holdings Corporation, priority 2001, dated 2005)
Converted amounts (≈) assume the structure as drawn.

Key:
Experiment in all cases: in vitro antibacterial evaluation, MIC by broth dilution
Format in all cases: cell-based
[1] = test system: Enterococcus sp.; settings: broth dilution, 18 hours at 35° C.
In short: (§1)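 Following National Committee for Clinical Laboratory Standards recommendations (M7-A2), susceptibility was measured by dilution in Muller-Hinton II […]. Bacteria were seeded at 5×10^5 CFU/mL against compound concentrations from 64 down to 0.06 μg/mL.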

[2] = test system: Staphylococcus sp.; settings: broth dilution, 18 hours at 35° C.
In short: as §1

[3] = test system: Streptococcus sp.; settings: broth dilution, 18 hours at 35° C.
In short: as §1

[4] = test system: Escherichia coli; settings: 18 hours at 35° C.

Structure (SMILES): CC(c1ccccc1)C1NC(=O)CNC(=O)C(CO)NC(=O)C(C(O)C2CNC(=N)N2C2OC(CO)C(O)C(O)C2O)NC(=O)C(C(O)C2CNC(=N)N2)NC(=O)C(Cc2ccc(OC3OC(CO)C(OC4OC(CO)C(O)C(OCc5ccc(OCc6ccccc6)cc5)C4O)C(O)C3O)cc2)NC1=O (stereo not drawn) [Example 231c, Cyclo[glycyl-β-methylphenylalanyl-O-[4-O-[3-O-[4-(phenylmethoxy)benzyl]hexopyranosyl]-hexopyranosyl]tyrosyl-3-(2-iminoimidazolidin-4-yl)seryl-3-(3-hexopyranosyl-2-iminoimidazolidin-4-yl)serylseryl]]
- MIC Enterococcus avium (GC 4558) [1]: 4 mg/L (≈ 2.68 µM)
- MIC Enterococcus faecalis (ATCC 29212) [1]: 4 mg/L (≈ 2.68 µM)
- MIC Enterococcus faecalis (GC 2242) [1]: 4 mg/L (≈ 2.68 µM)
- MIC Enterococcus faecalis (GC 2691) [1]: 8 mg/L (≈ 5.36 µM)
- MIC Enterococcus faecalis (GC 3059) [1]: 4 mg/L (≈ 2.68 µM)
- MIC Enterococcus faecalis (GC 4552) [1]: 4 mg/L (≈ 2.68 µM)
- MIC Enterococcus faecalis (GC 4553) [1]: 4 mg/L (≈ 2.68 µM)
- MIC Enterococcus faecalis (GC 4554) [1]: 4 mg/L (≈ 2.68 µM)
- MIC Enterococcus faecalis (GC 6189) [1]: 4 mg/L (≈ 2.68 µM)
- MIC Enterococcus faecium (GC 2243) [1]: 4 mg/L (≈ 2.68 µM)
- MIC Enterococcus faecium (GC 4556) [1]: 4 mg/L (≈ 2.68 µM)
- MIC Enterococcus faecium (GC 4557) [1]: 4 mg/L (≈ 2.68 µM)
- MIC Enterococcus faecalis (ATCC 29212) ([1]; inoculum 5×10^5 CFU/mL, strain ATCC 29212): 4 mg/L (≈ 2.68 µM)
- MIC Enterococcus faecalis (GC 2242) ([1]; inoculum 5×10^5 CFU/mL, strain GC 2242): 4 mg/L (≈ 2.68 µM)
- MIC Enterococcus faecium (GC 2243) ([1]; inoculum 5×10^5 CFU/mL, strain GC 2243): 4 mg/L (≈ 2.68 µM)
- MIC Enterococcus faecalis (GC 2691) ([1]; inoculum 5×10^5 CFU/mL, strain GC 2691): 8 mg/L (≈ 5.36 µM)
- MIC Enterococcus faecalis (GC 3059) ([1]; inoculum 5×10^5 CFU/mL, strain GC 3059): 4 mg/L (≈ 2.68 µM)
- MIC Enterococcus faecalis (GC 4552) ([1]; inoculum 5×10^5 CFU/mL, strain GC 4552): 4 mg/L (≈ 2.68 µM)
- MIC Enterococcus faecalis (GC 4553) ([1]; inoculum 5×10^5 CFU/mL, strain GC 4553): 4 mg/L (≈ 2.68 µM)
- MIC Enterococcus faecalis (GC 4554) ([1]; inoculum 5×10^5 CFU/mL, strain GC 4554): 4 mg/L (≈ 2.68 µM)
- MIC Enterococcus faecium (GC 4556) ([1]; inoculum 5×10^5 CFU/mL, strain GC 4556): 4 mg/L (≈ 2.68 µM)
- MIC Enterococcus faecium (GC 4557) ([1]; inoculum 5×10^5 CFU/mL, strain GC 4557): 4 mg/L (≈ 2.68 µM)
- MIC Enterococcus avium (GC 4558) ([1]; inoculum 5×10^5 CFU/mL, strain GC 4558): 4 mg/L (≈ 2.68 µM)
- MIC Enterococcus faecalis (GC 6189) ([1]; inoculum 5×10^5 CFU/mL, strain GC 6189): 4 mg/L (≈ 2.68 µM)
- MIC Coagulase Negative Staphylococcus (GC 4547) [2]: 2 mg/L (≈ 1.34 µM)
- MIC Coagulase Negative Staphylococcus (GC 4548) [2]: 0.5 mg/L (≈ 0.335 µM)
- MIC Coagulase Negative Staphylococcus (GC 4549) [2]: 0.5 mg/L (≈ 0.335 µM)
- MIC Coagulase Negative Staphylococcus (GC 4551) [2]: 1 mg/L (≈ 0.67 µM)
- MIC Coagulase Negative Staphylococcus (GC 6257) [2]: 0.5 mg/L (≈ 0.335 µM)
- MIC Staphylococcus aureus (ATCC 29213) [2]: 1 mg/L (≈ 0.67 µM)
- MIC Staphylococcus aureus (GC 1131) [2]: 2 mg/L (≈ 1.34 µM)
- MIC Staphylococcus aureus (GC 3051) [2]: 2 mg/L (≈ 1.34 µM)
- MIC Staphylococcus aureus (GC 3053) [2]: 2 mg/L (≈ 1.34 µM)
- MIC Staphylococcus aureus (GC 4541) [2]: 2 mg/L (≈ 1.34 µM)
- MIC Staphylococcus aureus (GC 4542) [2]: 2 mg/L (≈ 1.34 µM)
- MIC Staphylococcus aureus (GC 4544) [2]: 2 mg/L (≈ 1.34 µM)
- MIC Staphylococcus aureus (GC 4545) [2]: 2 mg/L (≈ 1.34 µM)
- MIC Staphylococcus aureus-SMITH (GC 4543) [2]: 1 mg/L (≈ 0.67 µM)
- MIC Staphylococcus haemolyticus (GC 4546) [2]: 1 mg/L (≈ 0.67 µM)
- MIC Staphylococcus aureus (ATCC 29213) ([2]; strain ATCC 29213): 1 mg/L (≈ 0.67 µM)
- MIC Staphylococcus aureus (GC 1131) ([2]; strain GC 1131): 2 mg/L (≈ 1.34 µM)
- MIC Staphylococcus aureus (GC 3051) ([2]; strain GC 3051): 2 mg/L (≈ 1.34 µM)
- MIC Staphylococcus aureus (GC 3053) ([2]; strain GC 3053): 2 mg/L (≈ 1.34 µM)
- MIC Staphylococcus aureus (GC 4541) ([2]; strain GC 4541): 2 mg/L (≈ 1.34 µM)
- MIC Staphylococcus aureus (GC 4542) ([2]; strain GC 4542): 2 mg/L (≈ 1.34 µM)
- MIC Staphylococcus aureus-SMITH (GC 4543) ([2]; strain GC 4543): 1 mg/L (≈ 0.67 µM)
- MIC Staphylococcus aureus (GC 4544) ([2]; strain GC 4544): 2 mg/L (≈ 1.34 µM)
- MIC Staphylococcus aureus (GC 4545) ([2]; strain GC 4545): 2 mg/L (≈ 1.34 µM)
- MIC Staphylococcus haemolyticus (GC 4546) ([2]; strain GC 4546): 1 mg/L (≈ 0.67 µM)
- MIC Coagulase Negative Staphylococcus (GC 4547) ([2]; strain GC 4547): 2 mg/L (≈ 1.34 µM)
- MIC Coagulase Negative Staphylococcus (GC 4548) ([2]; strain GC 4548): 0.5 mg/L (≈ 0.335 µM)
- MIC Coagulase Negative Staphylococcus (GC 4549) ([2]; strain GC 4549): 0.5 mg/L (≈ 0.335 µM)
- MIC Coagulase Negative Staphylococcus (GC 4551) ([2]; strain GC 4551): 1 mg/L (≈ 0.67 µM)
- MIC Coagulase Negative Staphylococcus (GC 6257) ([2]; strain GC 6257): 0.5 mg/L (≈ 0.335 µM)
- MIC Streptococcus agalactiae (GC 4564) [3]: <0.12 mg/L
- MIC Streptococcus pneumoniae (ATCC 6301) [3]: <0.12 mg/L
- MIC Streptococcus pneumoniae (GC 1894) [3]: <0.12 mg/L
- MIC Streptococcus pneumoniae (GC 4565) [3]: <0.12 mg/L
- MIC Streptococcus pyogenes (GC 4563) [3]: <0.12 mg/L
- MIC Streptococcus pneumoniae (ATCC 6301) ([3]; inoculum 5×10^5 CFU/mL, strain ATCC 6301): <0.12 mg/L
- MIC Streptococcus pneumoniae (GC 1894) ([3]; inoculum 5×10^5 CFU/mL, strain GC 1894): <0.12 mg/L
- MIC Streptococcus pyogenes (GC 4563) ([3]; inoculum 5×10^5 CFU/mL, strain GC 4563): <0.12 mg/L
- MIC Streptococcus agalactiae (GC 4564) ([3]; inoculum 5×10^5 CFU/mL, strain GC 4564): <0.12 mg/L
- MIC Streptococcus pneumoniae (GC 4565) ([3]; inoculum 5×10^5 CFU/mL, strain GC 4565): <0.12 mg/L
- MIC Escherichia coli (ATCC 25922) [4]: >128 mg/L
- MIC Escherichia coli (GC 4559) [4]: >128 mg/L
- MIC Escherichia coli (GC 4560) [4]: 2 mg/L (≈ 1.34 µM)
